Reference: ChEMBL document CHEMBL4145489, “Synthesis and anti-tumor activity of EF24 analogues as IKKβ inhibitors” (Eur J Med Chem, 2018)
pIC50: −log10 of the molar value. Blank lines part the entries; values can stand above or below the compound they belong to. The source made the active and inactive calls. No cut-off for these calls is given here.

Assays:
[1] = target: T1, Inhibitor of nuclear factor kappa-B kinase subunit beta (Homo sapiens, UniProt O14920); assay: Inhibition of IKKbeta (unknown origin) using FAM-P22 as substrate preincubated for 10 mins followed by substrate addition and measured after 1 hr by mobility shift assay
T1 sequence (O14920 whole entry): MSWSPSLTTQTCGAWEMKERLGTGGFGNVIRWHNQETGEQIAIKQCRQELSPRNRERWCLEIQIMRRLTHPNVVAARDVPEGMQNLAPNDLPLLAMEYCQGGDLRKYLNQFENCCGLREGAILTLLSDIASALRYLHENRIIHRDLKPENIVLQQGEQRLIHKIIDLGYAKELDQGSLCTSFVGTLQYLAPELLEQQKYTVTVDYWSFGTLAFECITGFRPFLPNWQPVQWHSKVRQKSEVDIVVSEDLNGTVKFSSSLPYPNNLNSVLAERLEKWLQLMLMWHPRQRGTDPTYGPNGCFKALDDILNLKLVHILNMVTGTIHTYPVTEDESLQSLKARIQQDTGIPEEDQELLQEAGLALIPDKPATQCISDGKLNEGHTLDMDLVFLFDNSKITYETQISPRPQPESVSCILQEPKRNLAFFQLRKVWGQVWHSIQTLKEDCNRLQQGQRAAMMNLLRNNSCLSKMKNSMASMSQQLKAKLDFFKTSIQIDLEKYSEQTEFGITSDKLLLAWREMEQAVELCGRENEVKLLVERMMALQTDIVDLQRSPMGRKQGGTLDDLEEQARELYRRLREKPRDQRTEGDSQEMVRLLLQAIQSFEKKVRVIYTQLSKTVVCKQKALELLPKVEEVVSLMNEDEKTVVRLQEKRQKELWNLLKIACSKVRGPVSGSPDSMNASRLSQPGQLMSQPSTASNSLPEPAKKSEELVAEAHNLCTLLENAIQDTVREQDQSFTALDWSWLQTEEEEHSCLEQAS

MGC-803 [2] = assay: Antiproliferative activity against human MGC803 cells after 72 hrs by MTT assay; type: functional, cell-based; conditions: MGC-803, 72 h
HeLa 229 = assay: Antiproliferative activity against human HeLa 229 cells after 72 hrs by MTT assay; type: functional, cell-based; conditions: HeLa 229, 72 h
SGC-7901 [3] = assay: Antiproliferative activity against human SGC7901 cells after 72 hrs by MTT assay; type: functional, cell-based; conditions: SGC-7901, 72 h
A549 = assay: Antiproliferative activity against human A549 cells after 72 hrs by MTT assay; type: functional, cell-based; conditions: A549, 72 h
SGC-7901 [4] = assay: Cell cycle arrest in human SGC7901 cells assessed as decrease in cyclinB1 levels at 1 to 10 uM after 12 hrs by Western blot analysis; type: functional, cell-based
SGC-7901 [5] = assay: Induction of apoptosis in human SGC7901 cells at 5 uM after 12 hrs by Annexin V-FITC staining-based FACS analysis (reference value: 1.56%); type: functional
[6] = target: T2, Inhibitor of nuclear factor kappa-B kinase subunit beta (Homo sapiens) (UniProt O14920); assay: Inhibition of IKKbeta in human SGC-7901 cells assessed as TNF-alpha induced I-kappa-B-alpha degradation at 1 to 10 uM preincubated for 1 hr followed by TNF-alpha stimulation and measured after 10 mins by Western blot analysis; type: cell-based
T2 sequence (whole entry): T1 sequence (O14920 whole entry)

SGC-7901 [7] = assay: Induction of apoptosis in human SGC7901 cells at 1 uM after 12 hrs by Annexin V-FITC staining-based FACS analysis (reference value: 1.56%); type: functional
SGC-7901 [8] = assay: Induction of apoptosis in human SGC7901 cells after 12 hrs by Annexin V-FITC staining-based FACS analysis; type: functional, cell-based
[9] = target: T3, Inhibitor of NF-kappa-B kinase alpha/beta (Homo sapiens) (UniProt O14920+O15111); assay: Inhibition of TNF-alpha induced IKKalpha/beta phosphorylation in human MGC-803 cells preincubated for 1 hr followed by TNF-alpha stimulation and measured after 10 mins by Western blot analysis; type: cell-based
SGC-7901 [10] = assay: Induction of apoptosis in human SGC7901 cells assessed as increase in cleaved caspase-3 levels at 1 to 10 uM after 12 hrs by Western blot analysis; type: functional, cell-based
SGC-7901 [11] = assay: Antitumor activity against human SGC7901 cells xenografted in athymic nude mouse assessed as tumor growth inhibition at 10 mg/kg, ip administered every other day for 22 days; type: functional, organism-based
SGC-7901 [12] = assay: Induction of apoptosis in human SGC7901 cells at 10 uM after 12 hrs by Annexin V-FITC staining-based FACS analysis (reference value: 1.56%); type: functional
SGC-7901 [13] = assay: Induction of apoptosis in human SGC7901 cells assessed as decrease in Bcl-2 levels at 1 to 10 uM after 12 hrs by Western blot analysis; type: functional, cell-based
SGC-7901 [14] = assay: Cell cycle arrest in human SGC7901 cells assessed as decrease in Cdc2 p34 levels after 12 hrs by Western blot analysis; type: functional, cell-based
MGC-803 [15] = assay: Cell cycle arrest in human MGC803 cells assessed as accumulation of cells at G2/M phase at 1 to 10 uM after 12 hrs by propidium iodide staining-based flow cytometric analysis; type: functional
Mus musculus [16] = assay: Downregulation of Bcl-2 levels in tumor of athymic nude mouse xenografted with human SGC7901 cells at 10 mg/kg, ip administered every other day for 22 days by Western blot method; type: functional, organism-based
Mus musculus [17] = assay: In vivo inhibition of IKKalpha/beta phosphorylation in tumor of athymic nude mouse xenografted with human SGC7901 cells at 10 mg/kg, ip administered every other day for 22 days by Western blot method; type: functional, organism-based
MGC-803 [18] = assay: Induction of apoptosis in human MGC803 cells at 1 uM after 12 hrs by Annexin V-FITC staining-based FACS analysis (reference value: 1.17%); type: functional
MGC-803 [19] = assay: Induction of apoptosis in human MGC803 cells at 5 uM after 12 hrs by Annexin V-FITC staining-based FACS analysis (reference value: 1.17%); type: functional
MGC-803 [20] = assay: Induction of apoptosis in human MGC803 cells at 10 uM after 12 hrs by Annexin V-FITC staining-based FACS analysis (reference value: 1.17%); type: functional
MGC-803 [21] = assay: Induction of apoptosis in human MGC803 cells assessed as decrease in Bcl-2 levels at 1 to 10 uM after 12 hrs by Western blot analysis; type: functional, cell-based
MGC-803 [22] = assay: Induction of apoptosis in human MGC803 cells assessed as increase in cleaved caspase-3 levels at 1 to 10 uM after 12 hrs by Western blot analysis; type: functional, cell-based
Mus musculus [23] = assay: In vivo inhibition of IKKalpha/beta in tumor of athymic nude mouse xenografted with human SGC7901 cells assessed as I-kappa-B-alpha degradation at 10 mg/kg, ip administered every other day for 22 days by Western blot method; type: functional, organism-based
Mus musculus [24] = assay: Toxicity in athymic nude mouse xenografted with human SGC7901 cells assessed as body weight loss at 10 mg/kg, ip administered every other day for 22 days; type: organism-based; conditions: in vivo, 528 h
[25] = target: T3, Inhibitor of NF-kappa-B kinase alpha/beta (Homo sapiens); assay: Inhibition of TNF-alpha induced IKKalpha/beta phosphorylation in human SGC-7901 cells preincubated for 1 hr followed by TNF-alpha stimulation and measured after 10 mins by Western blot analysis; type: cell-based
SGC-7901 [26] = assay: Cell cycle arrest in human SGC7901 cells assessed as accumulation of cells at G2/M phase at 1 to 10 uM after 12 hrs by propidium iodide staining-based flow cytometric analysis; type: functional
MGC-803 [27] = assay: Cell cycle arrest in human MGC803 cells assessed as decrease in cyclinB1 levels at 1 to 10 uM after 12 hrs by Western blot analysis; type: functional, cell-based
MGC-803 [28] = assay: Cell cycle arrest in human MGC803 cells assessed as decrease in Cdc2 p34 levels after 12 hrs by Western blot analysis; type: functional, cell-based
MGC-803 [29] = assay: Induction of apoptosis in human MGC803 cells after 12 hrs by Annexin V-FITC staining-based FACS analysis; type: functional, cell-based
[30] = target: T2, Inhibitor of nuclear factor kappa-B kinase subunit beta (Homo sapiens); assay: Inhibition of IKKbeta in human MGC-803 cells assessed as TNF-alpha induced I-kappa-B-alpha degradation at 1 to 10 uM preincubated for 1 hr followed by TNF-alpha stimulation and measured after 10 mins by Western blot analysis; type: cell-based
[31] = target: T2, Inhibitor of nuclear factor kappa-B kinase subunit beta (Homo sapiens); assay: Inhibition of IKKbeta in human SGC-7901 cells assessed as decrease in TNF-alpha induced p65 nuclear translocation at 10 uM preincubated for 1 hr followed by TNF-alpha stimulation and measured after 1 hr by DAPI staining-based fluorescence microscopic analysis; type: cell-based

SMILES: O=C1/C(=C/c2ccccc2F)COC/C1=C\c1ccccc1F
pIC50 [1]: 4.71

SMILES: Cc1ccc2nc(NCCN)c3ncc(C)n3c2c1.Cl
pIC50 (MGC-803 [2]): 4.85 | Activity (SGC-7901 [12]): 19.49% | pIC50 (HeLa 229): 5.03 | Activity (MGC-803 [20]): 12.61% | pIC50 (SGC-7901 [3]): 5.08 | pIC50 (A549): 5.03

Continued, in another order:

pIC50 [1]: 4.85
SMILES: O=C1/C(=C/c2c(F)cccc2F)CNC/C1=C\c1c(F)cccc1F

pIC50 (MGC-803 [2]): 5.70 | pIC50 (HeLa 229): 5.72 | pIC50 (SGC-7901 [3]): 6.00 | pIC50 (A549): 5.55
SMILES: O=C1/C(=C/c2ccccc2F)CNC/C1=C\c1ccccc1F

inhibition [6]: Active | pIC50 (MGC-803 [2]): 5.74 | inhibition [9]: Dose-dependent effect | pIC50 (HeLa 229): 5.74 | pIC50 (SGC-7901 [3]): 5.92 | pIC50 (A549): 5.68 | inhibition [25]: Dose-dependent effect | inhibition [30]: Active | inhibition [31]: Active
SMILES: O=C1/C(=C/c2ccccc2Br)CNC/C1=C\c1ccccc1Br
Activity (SGC-7901 [4]): Active | Activity (SGC-7901 [5]): 27.9% | Activity (SGC-7901 [7]): 8.95% | Activity (SGC-7901 [8]): Dose-dependent effect | Activity (SGC-7901 [10]): Active | TGI (SGC-7901 [11]): Active | Activity (SGC-7901 [12]): 45.3% | Activity (SGC-7901 [13]): Active | Activity (SGC-7901 [14]): Dose-dependent effect | Activity (MGC-803 [15]): Active | Activity (Mus musculus [16]): Active | inhibition (Mus musculus [17]): Active | Activity (MGC-803 [18]): 9.88% | Activity (MGC-803 [19]): 16.14% | Activity (MGC-803 [20]): 32.1% | Activity (MGC-803 [21]): Active | Activity (MGC-803 [22]): Active | inhibition (Mus musculus [23]): Active | Activity (Mus musculus [24]): Non-Toxic | Activity (SGC-7901 [26]): Active | Activity (MGC-803 [27]): Active | Activity (MGC-803 [28]): Dose-dependent effect | Activity (MGC-803 [29]): Dose-dependent effect
